Experimental findings from patent US20240252488A1 (KOREA RESEARCH INSTITUTE OF CHEMICAL TECHNOLOGY, priority 2020, published 2024) are described below.

By pKd is commonly meant the Kd on a negative log10 scale, so that one unit is a factor of ten. Lower therefore signals a large Kd.

Structures are written as SMILES. pKd: −log10 of the molar value.

One test relates to FADD−/− Jurkat cells. The experiment in a line: Necroptosis inhibition assay, TNF-α-induced necroptosis (CellTiter-Glo 2.0). The following applies: TNF-α 15 ng/mL; for Necroptosis inhibition assay (Rescue %) 1 μM: compound 1 μM; for Necroptosis inhibition assay (Rescue %) 10 μM: compound 10 μM. The class given is cell-based, human. In a few lines:
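Compound is added to cells at final concentrations of 0.1, 1 and 10 μM and left 30 minutes at room temperature. Necroptosis is induced with 15 ng/mL TNF-α, culture continues 20 to 24 hours at 37° C, and ATP-based luminescence reports viability.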
On the technique in general: ATP-based viability assays read luminescence as a measure of living cells.

The target of test [1] is T1, MLKL (Homo sapiens, UniProt Q8NB16).
T1 sequence (Q8NB16 1-471): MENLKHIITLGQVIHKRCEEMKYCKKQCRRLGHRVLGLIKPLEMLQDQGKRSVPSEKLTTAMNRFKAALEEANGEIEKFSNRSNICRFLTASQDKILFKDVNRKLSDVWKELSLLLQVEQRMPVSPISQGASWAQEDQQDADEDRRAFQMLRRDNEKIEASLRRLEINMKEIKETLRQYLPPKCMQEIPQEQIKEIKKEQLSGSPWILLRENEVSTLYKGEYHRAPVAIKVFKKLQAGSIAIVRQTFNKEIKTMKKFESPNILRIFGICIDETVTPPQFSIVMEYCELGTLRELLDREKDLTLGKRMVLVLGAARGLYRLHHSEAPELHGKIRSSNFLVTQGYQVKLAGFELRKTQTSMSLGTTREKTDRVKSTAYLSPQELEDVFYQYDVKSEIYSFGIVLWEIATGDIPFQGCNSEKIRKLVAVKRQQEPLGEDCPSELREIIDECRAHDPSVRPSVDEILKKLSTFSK
The experiment in a line: Measurement of binding affinity with MLKL receptor (competitive binding assay, Kd). Also noted: made in house; host or cells: HEK 293 cell line (T7 phage in E. coli BL21-derived host is also described). In a few lines:
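HEK 293-expressed, DNA-tagged MLKL; ligand beads blocked with biotin and SeaBlock/1% BSA/0.05% Tween 20/1 mM DTT buffer. Cpd from 111× DMSO stock, 0.9% DMSO final. Eluted kinase by qPCR → Kd.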

The target of test [2] is T1, MLKL. Nature of the test: MLKL degradation assay in HepG2 cell line (western blot). Format: cell-based. Also noted: endogenous in cells; host or cells: HepG2 or HaCaT. As to conditions: cell line not given; for Degradation assay (Degradation %) 1 μM: compound 1 μM; for Degradation assay (Degradation %) 10 μM: compound 10 μM. In a few lines:
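Chemiluminescent western blot signal reports remaining MLKL protein in HepG2 cells after 20-24 h treatment with compound at a final 1 or 10 μM. Equal protein (10-15 μg, BCA) is loaded per lane.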
(In western blotting, separated proteins are transferred to a membrane and probed.)

For `Nc1ncc(-c2cnn(C3CCN(CCOC4CCN(C(=O)COc5ccc6c(c5)C(=O)N(C5CCC(=O)NC5=O)C6=O)CC4)CC3)c2)nc1C(=O)OC(C(=O)Nc1ccc(F)cc1)c1ccccc1` (centres unmarked) [TDH-252, 2-((4-fluorophenyl)amino)-2-oxo-1-phenylethyl 3-amino-6-(1-(1-(2-((1-(2-((2-(2,6-dioxopiperidin-3-yl)-1,3-dioxoisoindolin-5-yl)oxy)acetyl)piperidin-4-yl)oxy)ethyl)piperidin-4-yl)-1H-pyrazol-4-yl)pyrazine-2-carboxylate], in the test with FADD−/− Jurkat cells, the “Necroptosis inhibition assay (Rescue %) 1 μM” value was 124.11% and the “Necroptosis inhibition assay (Rescue %) 10 μM” value is recorded as 73.38%. The pKd at MLKL [1] was 8.41. Also, on MLKL [2], the “Degradation assay (Degradation %) 1 μM” value was 76.56% and the “Degradation assay (Degradation %) 10 μM” value is recorded as 84.2%.

With `Nc1ncc(-c2cnn(C3CCN(C(=O)C4CCN(c5cccc6c5C(=O)N(C5CCC(=O)NC5=O)C6=O)CC4)CC3)c2)nc1C(=O)OC(C(=O)Nc1ccc(F)cc1)c1ccccc1` (centres unmarked) [TDH-279, 2-((4-fluorophenyl)amino)-2-oxo-1-phenylethyl 3-amino-6-(1-(1-(1-(2-(2,6-dioxopiperidin-3-yl)-1,3-dioxoisoindolin-4-yl)piperidine-4-carbonyl)piperidin-4-yl)-1H-pyrazol-4-yl)pyrazine-2-carboxylate], in the test with FADD−/− Jurkat cells, the “Necroptosis inhibition assay (Rescue %) 1 μM” value worked out at 24.78% and the “Necroptosis inhibition assay (Rescue %) 10 μM” value was found to be 44.14%. Also, at MLKL [1], the pKd was 8.30. Moreover, at MLKL [2], the “Degradation assay (Degradation %) 1 μM” value stood at 38.42% and the “Degradation assay (Degradation %) 10 μM” value turned out to be 15.86%.

Turning to `Nc1ncc(-c2cnn(C3CCN(CC4CN(C(=O)COc5cccc6c5C(=O)N(C5CCC(=O)NC5=O)C6=O)CCO4)CC3)c2)nc1C(=O)OC(C(=O)Nc1ccc(F)cc1)c1ccccc1` (centres unmarked) [TDH-308, 2-((4-fluorophenyl)amino)-2-oxo-1-phenylethyl 3-amino-6-(1-(1-((4-(2-((2-(2,6-dioxopiperidin-3-yl)-1,3-dioxoisoindolin-4-yl)oxy)acetyl)morpholin-2-yl)methyl)piperidin-4-yl)-1H-pyrazol-4-yl)pyrazine-2-carboxylate], in the test with FADD−/− Jurkat cells, the “Necroptosis inhibition assay (Rescue %) 1 μM” value is reported as 76.28% and the “Necroptosis inhibition assay (Rescue %) 10 μM” value stood at 56.73%. The compound also had a pKd at MLKL [1] of 8.77. On MLKL [2], the “Degradation assay (Degradation %) 1 μM” value came to 55.12% and the “Degradation assay (Degradation %) 10 μM” value is 69.64%.

Consider `Nc1ncc(-c2cnn(C3CCN(CC4CCN(C(=O)CCc5cccc6c5C(=O)N(C5CCC(=O)NC5=O)C6=O)CC4)CC3)c2)nc1C(=O)O[C@@H](C(=O)Nc1ccc(F)cc1)c1ccccc1` (stereo partly drawn) [TDH-336, (R)-2-((4-fluorophenyl)amino)-2-oxo-1-phenylethyl 3-amino-6-(1-(1-((1-(3-(2-(2,6-dioxopiperidin-3-yl)-1,3-dioxoisoindolin-4-yl)propanoyl)piperidin-4-yl)methyl)piperidin-4-yl)-1H-pyrazol-4-yl)pyrazine-2-carboxylate], for which, in the test on FADD−/− Jurkat cells, the “Necroptosis inhibition assay (Rescue %) 1 μM” value is given as 39.89% and the “Necroptosis inhibition assay (Rescue %) 10 μM” value was found to be 19.67%. At MLKL [1], this compound gave a pKd of 8.85. Also, at MLKL [2], the “Degradation assay (Degradation %) 1 μM” value was found to be 73.04% and the “Degradation assay (Degradation %) 10 μM” value was 66.71%.

As to `Nc1ncc(-c2cnn([C@H]3CCN(CC4CCN(C(=O)CNc5ccc6c(c5)C(=O)N(C5CCC(=O)NC5=O)C6=O)CC4)C3)c2)nc1C(=O)OC(C(=O)Nc1ccc(F)cc1)c1ccccc1` (stereo partly drawn) [TDH-282, 2-((4-fluorophenyl)amino)-2-oxo-1-phenylethyl 3-amino-6-(1-((3S)-1-((1-((2-(2,6-dioxopiperidin-3-yl)-1,3-dioxoisoindolin-5-yl)glycyl)piperidin-4-yl)methyl)pyrrolidin-3-yl)-1H-pyrazol-4-yl)pyrazine-2-carboxylate], in the test on FADD−/− Jurkat cells, the “Necroptosis inhibition assay (Rescue %) 1 μM” value turned out to be 77.92% and the “Necroptosis inhibition assay (Rescue %) 10 μM” value was determined as 67.84%. Further, the pKd on MLKL [1] is 8.25. Besides, at MLKL [2], the “Degradation assay (Degradation %) 1 μM” value was determined as 60.51% and the “Degradation assay (Degradation %) 10 μM” value stood at 58.02%.

Regarding `Nc1ncc(-c2cnn(C3CCN(CCC4CCN(C(=O)C5CCN(c6ccc7c(c6)C(=O)N(C6CCC(=O)NC6=O)C7=O)CC5)CC4)CC3)c2)nc1C(=O)O[C@@H](C(=O)Nc1ccc(F)cc1)c1ccccc1` (stereo partly drawn) [TDH-197, (R)-2-((4-fluorophenyl)amino)-2-oxo-1-phenylethyl 3-amino-6-(1-(1-(2-(1-(1-(2-(2,6-dioxopiperidin-3-yl)-1,3-dioxoisoindolin-5-yl)piperidine-4-carbonyl)piperidin-4-yl)ethyl)piperidin-4-yl)-1H-pyrazol-4-yl)pyrazine-2-carboxylate], in the test on FADD−/− Jurkat cells, the “Necroptosis inhibition assay (Rescue %) 1 μM” value turned out to be 56.07% and the “Necroptosis inhibition assay (Rescue %) 10 μM” value is 32.02%. The compound further showed a pKd on MLKL [1] of 9.13. Also, at MLKL [2], the “Degradation assay (Degradation %) 1 μM” value turned out to be 58.62% and the “Degradation assay (Degradation %) 10 μM” value was 23.6%.

On to `Nc1ncc(-c2cnn(C3CCN(CCOCCOCCNC(=O)C4CCN(c5ccc6c(c5)C(=O)N(C5CCC(=O)NC5=O)C6=O)CC4)CC3)c2)nc1C(=O)O[C@@H](C(=O)Nc1ccc(F)cc1)c1ccccc1` (stereo partly drawn) [TDH-111, (R)-2-((4-fluorophenyl)amino)-2-oxo-1-phenylethyl 3-amino-6-(1-(1-(2-(2-(2-(1-(2-(2,6-dioxopiperidin-3-yl)-1,3-dioxoisoindolin-5-yl)piperidine-4-carboxamido)ethoxy)ethoxy)ethyl)piperidin-4-yl)-1H-pyrazol-4-yl)pyrazine-2-carboxylate], for which, in the test on FADD−/− Jurkat cells, the “Necroptosis inhibition assay (Rescue %) 1 μM” value is given as 45.17% and the “Necroptosis inhibition assay (Rescue %) 10 μM” value was 78.08%. This compound had a pKd on MLKL [1] of 8.28. Moreover, at MLKL [2], the “Degradation assay (Degradation %) 1 μM” value was determined as 4.54% and the “Degradation assay (Degradation %) 10 μM” value is listed as 28.85%.

Consider `Nc1ncc(-c2cn(C3CCN(CC4CCN(C(=O)C5CCN(c6cccc7c6C(=O)N(C6CCC(=O)NC6=O)C7=O)CC5)CC4)CC3)nn2)nc1C(=O)OC(C(=O)Nc1ccc(F)cc1)c1ccccc1` (centres unmarked) [TDH-222, 2-((4-fluorophenyl)amino)-2-oxo-1-phenylethyl 3-amino-6-(1-(1-((1-(1-(2-(2,6-dioxopiperidin-3-yl)-1,3-dioxoisoindolin-4-yl)piperidine-4-carbonyl)piperidin-4-yl)methyl)piperidin-4-yl)-1H-1,2,3-triazol-4-yl)pyrazine-2-carboxylate], for which, in the test on FADD−/− Jurkat cells, the “Necroptosis inhibition assay (Rescue %) 1 μM” value is given as 45.31% and the “Necroptosis inhibition assay (Rescue %) 10 μM” value amounted to 34.2%. This compound had a pKd on MLKL [1] of 7.80. At MLKL [2], the “Degradation assay (Degradation %) 1 μM” value is on record as 37.4% and the “Degradation assay (Degradation %) 10 μM” value turned out to be 30.04%.

Take `COc1ccc(C(=O)N2CCC(CN3CCN(CCCN4CCC(n5cc(-c6cnc(N)c(C(=O)O[C@@H](C(=O)Nc7ccc(F)cc7)c7ccccc7)n6)cn5)CC4)CC3)CC2)cc1N1CCC(=O)NC1=O` [TDH-478, (R)-2-((4-fluorophenyl)amino)-2-oxo-1-phenylethyl 3-amino-6-(1-(1-(3-(4-((1-(3-(2,4-dioxotetrahydropyrimidin-1(2H)-yl)-4-methoxybenzoyl)piperidin-4-yl)methyl)piperazin-1-yl)propyl)piperidin-4-yl)-1H-pyrazol-4-yl)pyrazine-2-carboxylate]: in the test with FADD−/− Jurkat cells (FADD−/− Jurkat cells), the “Necroptosis inhibition assay (Rescue %) 1 μM” value turned out to be 92.11% and the “Necroptosis inhibition assay (Rescue %) 10 μM” value was found to be 43.19%. In addition, on MLKL [1], the pKd was 9.59. Further, at MLKL [2], the “Degradation assay (Degradation %) 1 μM” value is 89.29% and the “Degradation assay (Degradation %) 10 μM” value is reported as 86.88%.

For the compound `Nc1ncc(-c2cnn(C3CN(CC4CCN(C(=O)COc5cccc6c5C(=O)N(C5CCC(=O)NC5=O)C6=O)CC4)C3)c2)nc1C(=O)OC(C(=O)Nc1ccc(F)cc1)c1ccccc1` (centres unmarked) [TDH-298, 2-((4-fluorophenyl)amino)-2-oxo-1-phenylethyl 3-amino-6-(1-(1-((1-(2-((2-(2,6-dioxopiperidin-3-yl)-1,3-dioxoisoindolin-4-yl)oxy)acetyl)piperidin-4-yl)methyl)azetidin-3-yl)-1H-pyrazol-4-yl)pyrazine-2-carboxylate], in the test with FADD−/− Jurkat cells, the “Necroptosis inhibition assay (Rescue %) 1 μM” value is listed as 41.64% and the “Necroptosis inhibition assay (Rescue %) 10 μM” value came to 66.6%. This compound had a pKd at MLKL [1] of 8.01. At MLKL [2], the “Degradation assay (Degradation %) 1 μM” value is reported as 45.8% and the “Degradation assay (Degradation %) 10 μM” value is on record as 78.83%.
